Some test systems named below: A549 NSCLC; EKVX NSCLC; HCC-2998 colon; HCT-116 colon; HL-60(TB) leukemia; HT29 colon; IGROV1 ovarian; KM12 colon; MCF7 breast; MDA-N; OVCAR-3 ovarian; OVCAR-5 ovarian; OVCAR-8 ovarian; RPMI-8226 leukemia; SF-539 CNS; SK-MEL-2 melanoma; SNB-19 CNS; SR leukemia; UO-31 renal.
Holding throughout (assay): NCI-60 cell line screen, 48 h

SMILES strings stand for the structures.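 These data come from cells grown in 96-well plates and exposed to compound for 48 hours at five concentrations. TGI marks complete inhibition of growth.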

For `O=S(=O)(/N=C(\NO)Nc1ccc(Cl)cc1)C1CC=C(c2ccon2)S1` (stereo not drawn), the TGI in the test with A549 NSCLC is > 100 µM; in the test on EKVX NSCLC, > 100 µM; in the test on HCC-2998 colon, 50.4 µM; in the test on HCT-116 colon, > 100 µM; in the test with HL-60(TB) leukemia it was 35.6 µM; in the test on HT29 colon, > 100 µM. Moreover, the TGI with IGROV1 ovarian was > 72.3 µM; in the test with KM12 colon, > 100 µM; in the test with MCF7 breast it was > 100 µM; with MDA-N, > 100 µM; with OVCAR-3 ovarian, > 100 µM; in the test on OVCAR-5 ovarian, > 100 µM. Further, the TGI was > 100 µM with OVCAR-8 ovarian; > 50.3 µM in the test on RPMI-8226 leukemia; 16.9 µM in the test on SF-539 CNS; 55.1 µM in the test on SK-MEL-2 melanoma; > 100 µM in the test on SNB-19 CNS; 19.8 µM with SR leukemia. In the test on UO-31 renal, this molecule gave a TGI of 81.6 µM.

With `CC(=O)OCCOCCN1CCN(c2c(O)c3c(c(O)c2Cl)C(=O)C=CC3=O)CC1`, the TGI in the test with A549 NSCLC turned out to be 3.94 µM; in the test with EKVX NSCLC, 3.22 µM; with HCC-2998 colon, 4.31 µM; in the test on HCT-116 colon, 0.72 µM; in the test on HL-60(TB) leukemia it was 0.238 µM; in the test on HT29 colon it was 2.17 µM. Further, the TGI in the test with IGROV1 ovarian amounted to 3.04 µM; in the test on KM12 colon, 4.92 µM; with MCF7 breast it was 0.976 µM; in the test on MDA-N it was 1.79 µM; in the test with OVCAR-3 ovarian, 2 µM; with OVCAR-5 ovarian it was 2.97 µM. Further, the TGI is 2.66 µM with OVCAR-8 ovarian; 1.42 µM with RPMI-8226 leukemia; 3.37 µM in the test with SF-539 CNS; 3.26 µM in the test with SK-MEL-2 melanoma; 6.82 µM in the test on SNB-19 CNS; 4.54 µM in the test on SR leukemia. The TGI in the test on UO-31 renal worked out at 2.47 µM.

Consider `NC(N)=NS(=O)(=O)c1ccc(NC(=O)c2ccc3nc4ccccc4c(N)c3c2)cc1`, for which the TGI with A549 NSCLC, with EKVX NSCLC, in the test with HCC-2998 colon, in the test on HCT-116 colon, with HL-60(TB) leukemia and in the test on HT29 colon was > 100 µM each time. The TGI in the test with IGROV1 ovarian, with KM12 colon, in the test on MCF7 breast, with MDA-N, with OVCAR-3 ovarian and in the test on OVCAR-5 ovarian was > 100 µM each time. The TGI in the test on OVCAR-8 ovarian, with RPMI-8226 leukemia, in the test on SF-539 CNS, in the test with SK-MEL-2 melanoma, in the test on SNB-19 CNS and in the test with SR leukemia was > 100 µM in each case. In addition, the TGI with UO-31 renal is > 100 µM.

With `CCCCCCCCCCCCCCCCOc1ccc(/C=C/C2=[N+](CCCl)CCO2)cc1`, the TGI in the test with A549 NSCLC was > 100 µM; in the test on EKVX NSCLC it was > 100 µM; in the test with HCC-2998 colon it was > 100 µM; with HCT-116 colon, > 100 µM; in the test on HL-60(TB) leukemia, 98.6 µM; in the test on HT29 colon, > 100 µM. Also, the TGI with IGROV1 ovarian, in the test on KM12 colon, in the test with MCF7 breast, in the test on MDA-N, with OVCAR-3 ovarian and in the test on OVCAR-5 ovarian was > 100 µM each time. The TGI was > 100 µM with OVCAR-8 ovarian; > 100 µM in the test on RPMI-8226 leukemia; > 100 µM with SF-539 CNS; > 100 µM with SK-MEL-2 melanoma; > 100 µM in the test with SNB-19 CNS; 92.5 µM in the test on SR leukemia. In addition, the TGI in the test on UO-31 renal is > 100 µM.

Regarding `C=CCn1c(-c2ccc(Cl)cc2Cl)csc1=Nc1c(C)n(C)n(-c2ccccc2)c1=O`, the TGI with A549 NSCLC came to 23.1 µM; with EKVX NSCLC it was 13.5 µM; with HCC-2998 colon, 29.1 µM; with HCT-116 colon, 20.4 µM; in the test on HL-60(TB) leukemia, 25.8 µM; in the test with HT29 colon it was 25.3 µM. Besides, the TGI was 31.5 µM with IGROV1 ovarian; 29.3 µM in the test with KM12 colon; 25.4 µM with MCF7 breast; 22.4 µM with MDA-N; 23.7 µM in the test with OVCAR-3 ovarian; 31.1 µM with OVCAR-5 ovarian. The TGI was 21.7 µM in the test on OVCAR-8 ovarian; > 46.3 µM in the test with RPMI-8226 leukemia; 30.4 µM in the test on SF-539 CNS; 29.2 µM with SK-MEL-2 melanoma; 24.7 µM in the test with SNB-19 CNS; 21.9 µM in the test with SR leukemia. This molecule registered a TGI in the test on UO-31 renal of 24.3 µM.

For the molecule `CC1CC(C(=O)OC2OC(COC3OC(CO)C(OC4OC(C)C(O)C(O)C4O)C(O)C3O)C(O)C(O)C2O)C2CCC3(C)C(=CCC4(C)C3CCC3C(C)(CO)C(O)C(O)CC34C)C2C1C` (stereo not drawn), the TGI is > 100 µM with A549 NSCLC; > 10 µM in the test with EKVX NSCLC; 40.8 µM in the test on HCC-2998 colon; 41.7 µM in the test with HCT-116 colon; 45.8 µM in the test with HL-60(TB) leukemia; 41.1 µM in the test with HT29 colon. Moreover, the TGI was 33.2 µM with IGROV1 ovarian; 33.4 µM with KM12 colon; 53 µM in the test with MCF7 breast; 36.4 µM in the test with MDA-N; 60.4 µM with OVCAR-3 ovarian; 66.7 µM in the test on OVCAR-5 ovarian. The TGI is 32.3 µM with OVCAR-8 ovarian; 49.2 µM with RPMI-8226 leukemia; 38 µM with SF-539 CNS; 42.2 µM in the test with SK-MEL-2 melanoma; 32 µM in the test on SNB-19 CNS; 41 µM with SR leukemia. Besides, the TGI in the test with UO-31 renal is > 100 µM.

On to `COc1ccc(N(C(=O)NCCO)c2ccccc2)cc1`, for which the TGI in the test on A549 NSCLC, in the test on EKVX NSCLC, with HCC-2998 colon, with HCT-116 colon, in the test on HL-60(TB) leukemia and in the test on HT29 colon was > 100 µM throughout. For the same molecule, the TGI in the test with IGROV1 ovarian, in the test with KM12 colon, in the test on MCF7 breast, with MDA-N, with OVCAR-3 ovarian and in the test with OVCAR-5 ovarian was > 100 µM in each case. Besides, the TGI in the test with OVCAR-8 ovarian, with RPMI-8226 leukemia, in the test on SF-539 CNS, in the test on SK-MEL-2 melanoma, in the test with SNB-19 CNS and in the test on SR leukemia was > 100 µM each time. Moreover, the TGI in the test with UO-31 renal is > 100 µM.
